Read-outs that look alike come from different tables or passages of the source.
Columns and labels:
[1] = assay type: physicochemical; details: for p-chloroaniline (ppm, HPLC method 1): methanol:acetic acid 8:1 (v/v), 40° C.; for p-chloroaniline (ppm, HPLC method 1), Average: methanol:acetic acid 8:1, 40° C.
Method: HPLCs were acquired on a Waters Alliance 2695 LC system. Column: Kromasil C18, 5 μm, 4.6×250 mm. Flow rate: 1 mL/min. Detector: UV, 254 nm. Mobile phase A: (33:9.5:57.5; v/v/v) 1-octanesulfonic acid sodium salt solution/glacial acetic acid/methanol. The 1-octanesulfonic acid sodium salt solution was prepared dissolving 1.6 g of 1-octanesulfonic acid sodium salt in 330 ml of water and adding 95 ml of glacial acetic acid and 575 ml of methanol. Mobile phase B: methanol. Gradient: 100% A (0-20 min)-85% A (40-65 min)-100% A (70-80 min). Temperature: 30° C. Sample: 10 mg/mL in mobile phase A. Injection volume: 10 μL.
Limit of detection (LOD): 3 ppm of p-chloroaniline.
Two 100 mg aliquots of a sample of chlorhexidine free of potential genotoxicity (Replicates A and B), having a content of p-chloroaniline below 40-50 ppm, a content of each of compounds of Markush formula (IV) (i.e. impurities B-G) below 0.15%, and a total impurities content below 1.5%, as measured by HPLC method 1, were dissolved in 1 mL of a mixture of methanol and acetic acid 8:1 (v/v), and each solution was stored in 5 different closed glass vials at 40° C. These vials were opened after 1, 2, 4, 14, and 25 days of storage, respectively, and the content of p-chloroaniline was measured (HPLC method 1). A linear regression line was calculated from the data obtained in Table 1 (y=2170x-356, R^2=0.991, where “y” represents the measured content of p-chloro aniline in ppm units and “x” represents the degradation time in day units; See FIG. 1).
Three 100 mg aliquots of a sample of chlorhexidine (Replicates C, D and E), having a content of p-chloroaniline of less than 40-50 ppm, a content of each of compounds of Markush formula (IV) (i.e. impurities B-G) higher than 0.15%, and a total impurities content below 2.5-3.0%, as measured by HPLC method 1, were dissolved in 1 mL of a mixture of methanol and acetic acid 8:1 (v/v), and each solution was stored in 2 different closed glass vials at 40° C. These vials were opened after 12 and 19 days of storage, respectively, and the content of p-chloroaniline was measured (HPLC method 1).

[2] = Stability study of aqueous solutions of chlorhexidine digluconate (p-chloroaniline by colorimetric method, European Pharmacopoeia 6.0); assay type: physicochemical; details: 20% aqueous solution; for p-chloroaniline (ppm, Colorimetry), 3 months: closed vial, protected from light
Method: In the U.S. Pharmacopoeia (First Supplement to the USP 33-NF 28 Reissue, USP Monographs: Chlorhexidine Gluconate Solution) it is described that the digluconate salt of chlorhexidine in aqueous solution should be preserved in tight containers, protected from light, and at controlled room temperature (i.e. about 25° C.). In this regard, the present inventors have observed that a 20% (w/v) aqueous solution of the chlorhexidine digluconate of the invention which is free of potential genotoxicity (i.e. having a content of p-chloroaniline lower than 40-50 ppm, with respect to the chlorhexidine base) can become moderately potentially genotoxic (i.e. showing a content of p-chloroaniline dramatically close to higher than 40-50 ppm) after 3 months of storage at 25° C., and highly potentially genotoxic (i.e. showing a content of p-chloroaniline much higher than 40-50 ppm) after 3 months of storage at 40° C. […] Conversely, when storing the aqueous solution of chlorhexidine digluconate of the invention at 15° C., the free-genotoxic stability (i.e. a content of p-chloroaniline lower than 40-50 ppm) is kept at low values for at least 3 months (See Example 12).
Two samples corresponding to a 20% (v/w) aqueous solution of chlorhexidine digluconate which was prepared from the chlorhexidine of Example 10, were stored in a closed vial, under different temperature conditions (i.e. 15° C., 25° C., and 40° C.) for 3 months in a closed chamber protected from light. The potentially free genotoxicity stability of the samples (i.e. the presence of p-chloroaniline) was measured by the colorimetric method described for measuring p-chloroaniline in chlorhexidine digluconate solution in European Pharmacopoeia 6.0 (page 1501).

[3] = 1 day of storage, sample with impurities B-G below 0.15%, 0.54% total impurities
[4] = 2 days of storage, sample with impurities B-G below 0.15%, 0.54% total impurities
[5] = 4 days of storage, sample with impurities B-G below 0.15%, 0.54% total impurities
[6] = 14 days of storage, sample with impurities B-G below 0.15%, 0.54% total impurities
[7] = 25 days of storage, sample with impurities B-G below 0.15%, 0.54% total impurities
[8] = 12 days of storage, sample with impurities B-G higher than 0.15%, 2.64% total impurities
[9] = 19 days of storage, sample with impurities B-G higher than 0.15%, 2.64% total impurities

N=C(NCCCCCCNC(=N)NC(=N)Nc1ccc(Cl)cc1)NC(=N)Nc1ccc(Cl)cc1 [Replicate A]
p-chloroaniline (ppm, HPLC method 1) [1, 3]: 1,556 ppm
p-chloroaniline (ppm, HPLC method 1) [1, 4]: 3,357 ppm
p-chloroaniline (ppm, HPLC method 1) [1, 5]: 6,284 ppm
p-chloroaniline (ppm, HPLC method 1) [1, 6]: 33,753 ppm
p-chloroaniline (ppm, HPLC method 1) [1, 7]: 52,561 ppm

N=C(NCCCCCCNC(=N)NC(=N)Nc1ccc(Cl)cc1)NC(=N)Nc1ccc(Cl)cc1 [Replicate B]
p-chloroaniline (ppm, HPLC method 1) [1, 3]: 1,925 ppm
p-chloroaniline (ppm, HPLC method 1) [1, 4]: 3,609 ppm
p-chloroaniline (ppm, HPLC method 1) [1, 5]: 7,819 ppm
p-chloroaniline (ppm, HPLC method 1) [1, 6]: 33,575 ppm
p-chloroaniline (ppm, HPLC method 1) [1, 7]: 51,656 ppm

N=C(NCCCCCCNC(=N)NC(=N)Nc1ccc(Cl)cc1)NC(=N)Nc1ccc(Cl)cc1 [Replicate C]
p-chloroaniline (ppm, HPLC method 1) [1, 8]: 33657 ppm
p-chloroaniline (ppm, HPLC method 1) [1, 9]: 45243 ppm

N=C(NCCCCCCNC(=N)NC(=N)Nc1ccc(Cl)cc1)NC(=N)Nc1ccc(Cl)cc1 [Replicate D]
p-chloroaniline (ppm, HPLC method 1) [1, 8]: 33153 ppm
p-chloroaniline (ppm, HPLC method 1) [1, 9]: 46753 ppm

N=C(NCCCCCCNC(=N)NC(=N)Nc1ccc(Cl)cc1)NC(=N)Nc1ccc(Cl)cc1 [Replicate E]
p-chloroaniline (ppm, HPLC method 1) [1, 8]: 33568 ppm
p-chloroaniline (ppm, HPLC method 1) [1, 9]: 47577 ppm

N=C(NCCCCCCNC(=N)NC(=N)Nc1ccc(Cl)cc1)NC(=N)Nc1ccc(Cl)cc1.O=C(O)[C@H](O)[C@@H](O)[C@H](O)[C@H](O)CO.O=C(O)[C@H](O)[C@@H](O)[C@H](O)[C@H](O)CO [chlorhexidine digluconate]
p-chloroaniline, Increasing (%) ([2]; 3 months at 15° C.): 433%
p-chloroaniline, Increasing (%) ([2]; 3 months at 25° C.): 1533%
p-chloroaniline, Increasing (%) ([2]; 3 months at 40° C.): 4233%
p-chloroaniline (ppm, Colorimetry), Initial ([2]; sample to be stored at 15° C.): 3 ppm
p-chloroaniline (ppm, Colorimetry), Initial ([2]; sample to be stored at 25° C.): 3 ppm
p-chloroaniline (ppm, Colorimetry), Initial ([2]; sample to be stored at 40° C.): 3 ppm
p-chloroaniline (ppm, Colorimetry), 3 months ([2]; storage at 15° C.): 16 ppm
p-chloroaniline (ppm, Colorimetry), 3 months ([2]; storage at 25° C.): 49 ppm
p-chloroaniline (ppm, Colorimetry), 3 months ([2]; storage at 40° C.): 130 ppm

[H]/N=C(\N/C(=N/[H])NCCCCCCNC(=N)NC(=N)Nc1ccc(Cl)cc1)Nc1ccc(Cl)cc1 [chlorhexidine, 1-[amino-[6-[amino-[amino-(4-chlorophenyl)aminomethylidene]aminomethylidene]amino-hexylimino]methyl]imino-N-(4-chlorophenyl)-methanediamine]
linear regression line, degradation rate towards p-chloroaniline [1]: 2170x-356
p-chloroaniline (ppm, HPLC method 1), Average ([1]; average of Replicates A and B, 1 day, 0.54% total impurities sample): 1,741 ppm
p-chloroaniline (ppm, HPLC method 1), Average ([1]; average of Replicates A and B, 2 days, 0.54% total impurities sample): 3,483 ppm
p-chloroaniline (ppm, HPLC method 1), Average ([1]; average of Replicates A and B, 4 days, 0.54% total impurities sample): 7,052 ppm
p-chloroaniline (ppm, HPLC method 1), Average ([1]; average of Replicates A and B, 14 days, 0.54% total impurities sample): 33,664 ppm
p-chloroaniline (ppm, HPLC method 1), Average ([1]; average of Replicates A and B, 25 days, 0.54% total impurities sample): 52,109 ppm
p-chloroaniline (ppm, HPLC method 1), Average ([1]; average of Replicates C, D and E, 12 days, 2.64% total impurities sample): 33459 ppm
p-chloroaniline (ppm, HPLC method 1), Average ([1]; average of Replicates C, D and E, 19 days, 2.64% total impurities sample): 46524 ppm
